Assay results from patent US12157732B2, “eIF4E inhibitors and uses thereof” (PIC Therapeutics, Inc., priority 2021, dated 2024).
pIC50: −log10 of the molar value.

molecular target: T1, Human eIF4E (aa 28-217) / biotin labeled 4G2 peptide (Homo sapiens, UniProt P06730); assay: Human eIF4E/4G2 binding assay (TR-FRET); conditions: TR-FRET eIF4E/4G2 peptide binding; 4 hours preincubation with eIF4E at room temperature
T1 construct: Human eIF4E (aa 28-217) with a C-terminal His-tag; made in house
Protocol: Example 3. Compound Testing in Human eIF4E/4G2 Binding Assay
Human eIF4E (aa 28-217) with a C-terminal His-tag was expressed in E. coli in inclusion bodies. The protein was solubilized with 8 M urea and purified under denaturing conditions using nickel-charged HisTrap HP columns (GE Healthcare). The purified protein was then refolded by diluting in 20 mM Hepes pH 7.0, 0.5 M NaCl, 1 mM DTT, 1 mM EDTA, 0.5 M arginine plus 6 M urea, and then dialyzing overnight into the same buffer without the urea. The protein was further dialyzed into 20 mM Hepes, pH 6.5, 50 mM NaCl, 1 mM EDTA, 1 mM DTT, and concentrated using Hitrap SP sepharose FF columns (GE Healthcare). The concentrated protein was dialyzed into 20 mM Hepes, pH 7.0, 0.5M NaCl, 5 mM DTT and 10% glycerol, and stored at −80° C. until use.
Test compounds (3.43 mM stock in DMSO) were diluted 2-fold in series in DMSO (10 concentration points). Compound solutions (1.2 μl/well) were added into black 384-well polypropylene microplates (Matrix, Thermal Scientific). Twenty-two microliters per well of Assay Buffer (50 mM NaPi, pH 6.5, 50 mM KCl, 1 mM DTT and 0.5 mg/ml gamma globulin) and eight microliters per well of 82.5 nM purified eIF4E in Assay Buffer were added. The samples were incubated at room temperature (20-23° C.) for 4 hours. Biotin labeled 4G2 peptide (Ac-Lys-Gln-Tyr-Asp-Arg-Glu-Phe-Leu-Leu-Asp-Phe-Gln-Phe-Met-Pro-Lys(Aha-Bio)-NH2, 1.75 μM stock in DMSO) was diluted to 0.14 μM in Assay Buffer (without DTT) and 5 μl/well was added. The samples were incubated at room temperature for 20 min. Five microliters per well of 6.4 nM Eu-streptavidin (Eu-SA, Perkin Elmer) and 80 nM Allophycocyanin (APC)-anti His antibody (Columbia Biosciences) in Assay Buffer (without DTT) were then added and the samples were incubated at room temperature for 20 min.
Assay signals were monitored by reading excitation at 340 nm and emission fluorescence at 615 nm and 665 nm on an Envision reader (Perkin Elmer). Normalized TR-FRET (time-resolved fluorescence resonance energy transfer) assay signal (Rn) was calculated by the formula: Rn=[(A−Ba−C×D)/(D−Bd)]×(Dc−Bd) Where A is the fluorescence intensity of the sample at 665 nm, D is the fluorescence intensity of the sample at 615 nm, Ba and Bd are plate backgrounds at 665 nm and 615 nm, respectively, Dc is the fluorescence intensity of 0.78 nM Eu-SA in the assay buffer at 615 nm The cross-talk factor (C) is determined by the following formula: C=(Ac−Ba)/(Dc−Bd) Where Ac is the fluorescence intensity of 0.78 nM Eu-SA in the assay buffer at 665 nm.
IC50 values were calculated using xLFit program (IDBS). Table 3 below lists IC50 of some compounds, wherein A represents IC50<0.5 μM; B represents 500 nM<IC50<1 μM; and C represents IC50>1 μM.

T1 sequence (P06730 28-217): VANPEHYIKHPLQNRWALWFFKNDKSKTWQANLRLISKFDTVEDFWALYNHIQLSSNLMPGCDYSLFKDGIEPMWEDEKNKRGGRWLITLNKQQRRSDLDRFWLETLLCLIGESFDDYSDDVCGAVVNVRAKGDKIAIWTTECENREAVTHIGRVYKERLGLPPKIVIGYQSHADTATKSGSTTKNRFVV

pIC50, > 6.30:
CC(C)CCc1nc(Nc2cc(-c3ccccc3)sc2C(=O)O)sc1-c1ccc(Cl)c(Cl)c1 [I-6]
CC(C)CCc1nc(Nc2cc(C3CCCC3)sc2C(=O)O)sc1-c1ccc(OC(F)(F)F)cc1 [I-18]
COc1ccc(-c2sc(Nc3ncc(-c4cccs4)cc3C(=O)O)nc2C2CC2)cc1 [I-54]
CC(C)c1nc(Nc2ncc(C(F)(F)F)cc2C(=O)O)sc1-c1ccc(-c2ccccc2)cc1 [I-38]
CC(C)c1nc(Nc2ncc(-c3cccs3)cc2C(=O)O)sc1-c1ccc(Cl)c(Cl)c1 [I-2, 2-(5-(3,4-Dichlorophenyl)-4-Isopropylthiazol-2-Ylamino)-5-(Thiophen-2-yl)nicotinic acid]
